Assay results published in a melting point compilation (Tetko et al.).

Row | Structure (SMILES) | melting point [°C]
1 | Cc1cc(Br)c(O)c(Br)c1 | 50
2 | COC(=O)c1sccc1N | 66 to 67
3 | CCC1(CC)COC(=O)NC1=O | 97.5
4 | COc1cc(OC)c(C(C)=O)c(OC)c1 | 103
5 | ON=C(O)c1ccccc1O | 177 to 185
6 | CC(C)(C)NC(=O)NN | 119 to 120
7 | O=C(c1c[nH]c2ccccc12)C(F)(F)F | 211 to 214
8 | COc1cc(-c2nnc3sc(-c4cccnc4)nn23)cc(OC)c1OC | 175
9 | CC(Cc1cc(=O)c2c3c(c4ccccc4c2o1)OC1CC(=O)OC31)O[Si](C)(C)C(C)(C)C (stereo not given) | 188
10 | C1=CCCCC=C1 | -110
11 | C=CCC1(C2C=CCCC2)C(=O)NC(=S)NC1=O (stereo not given) | 148
12 | CCCCNC(=O)n1cc(F)c(=O)[nH]c1=O | 136
13 | O=C(NC(=S)Nc1ccccn1)c1ccccc1 | 144 to 147
14 | COC1N(c2ccccc2)N=C(c2ccccc2)N1c1ccccc1 (stereo not given) | 80
15 | N#Cc1cccc(F)n1 | 34
16 | CNC(=O)n1cc(F)c(=O)[nH]c1=O | 226
17 | CC(C)CCCCCCCOC(=O)c1ccccc1C(=O)OCCCCCCCC(C)C | -45.6
18 | C[C@]1(O)C#CCCCCCC#C[C@@](C)(O)CC1 | 100
19 | COC=CC(=O)OC | 3 to 4
20 | CC12CCC3C(CCC(CC(=O)O)C3(C)CC(=O)O)C1CCC2=O (stereo not given) | 223 to 224
21 | CCOC(=O)C(CC)c1ccc(C)cc1 (stereo not given) | 130
22 | C=CC1CN2CCC1CC2c1[nH]c2ccccc2c1CCO (stereo not given) | 186

Row | Structure (SMILES) | melting point [°C]
23 | Cc1nc(O)nc(O)c1C | 297 to 300
24 | CCCCCCCCCF | 1
25 | CC12CCC(O)CC1CCC1C3CCC(O)(C#Cc4ccccc4)C3CCC12 (stereo not given) | 118 to 125
26 | CCOC(=O)CCC(N[P+]([O-])(OC)C(C)NC(=O)CCCCN1C(=O)c2ccccc2C1=O)C(=O)OCC (stereo not given) | 81
27 | Cc1ccc(C(c2ccc(C(c3ccc(C)o3)c3ccc(C)o3)cc2)c2ccc(C)o2)o1 | 156
28 | O=C(O)c1cccc(C(=O)O)c1C(=O)O | 200
29 | COc1ccc(-c2nnc(CCl)o2)cc1 | 91 to 95
30 | NC(=S)c1ccc(C2OCCO2)cc1 | 150 to 154
31 | O=C(O)c1csc(N2CCOCC2)n1 | 175 to 177
32 | FCc1ccccc1 | -35
33 | FC(F)C(F)C(F)(F)F (stereo not given) | -156
34 | CC/C(=N/NC(N)=O)C1=CC2(C)CCC1C2(C)C (stereo not given) | 196 to 197
35 | O=C(O)C(O)Cc1ccccc1 (stereo not given) | 121 to 125
36 | CCCC(C)OC(C)=O (stereo not given) | -100
37 | O=Cc1ccc(N2CCCC2)cc1 | 85
38 | CC(=O)C(C)(CCC(=O)O)CCC(=O)O | 123
39 | CC1(O)CNC(=O)C1 (stereo not given) | 140
40 | [O-][P+](c1ccccc1)(c1ccccc1)C1c2ccccc2Oc2ccccc21 | 161
41 | COc1cc(N)c(Cl)cc1C(=O)NC1CCN(Cc2ccccc2)CC1 | 194
42 | CCCCCCCCCCCCCCCCCC(=O)OC(C)C | 28
43 | NCCS(=O)(=O)O | 328
44 | CC(C)[C@@H](C)CC[C@@H](C)[C@H]1CC[C@H]2C3=CC[C@H]4C[C@@H](O)CC[C@]4(C)[C@H]3CC[C@]12C | 146

Row | Structure (SMILES) | melting point [°C]
45 | CC(C)Nc1ccccc1 | -10
46 | NNC(=S)Nc1ccc(C(F)(F)F)cc1 | 167
47 | O=C(O)CNc1ccccc1C(=O)O | 218
48 | COC(=O)c1cc(O)ccc1O | 87
49 | CN1CCN(C2CCNCC2)CC1 | 54.5
50 | CN(CCO)CCO | -21
51 | Cc1nc(-c2cnccn2)sc1C(=O)Cl | 101
52 | O=C1CC(=O)NCCNCCNCCNC(=O)CC(=O)NCCNCCNCCN1 | 199 to 202
53 | Oc1ccc(Cl)cc1Br | 33
54 | Cc1ccc(OC(=O)C(C)(c2ccccc2)c2ccccc2)cc1 | 111
55 | C/C=C/C(=O)NNc1ccccc1 | 190
56 | CCCCCCCCCCS(=O)(=O)Cl | 34
57 | ClC(Cl)=C(Cl)C(Cl)=C(Cl)Cl | -21
58 | Cn1c(=O)c2[nH]c(=O)[nH]c2n(C)c1=O | 412 to 415
59 | CN(C)C(c1ccccc1)c1ccccc1 | 69
60 | O=c1[nH]c2ccccc2n1C1CCN(CCCC(c2ccc(F)cc2)c2ccc(F)cc2)CC1 | 216
61 | Cc1c(Cl)cc(F)cc1S(N)(=O)=O | 118 to 120
62 | N#CC(=O)c1ccccc1 | 32.5
63 | Clc1cc(Cl)c(Cl)c(I)c1 | 52
64 | Nc1ncc([N+](=O)[O-])cn1 | 237
65 | Clc1ccc(Cl)c(CBr)c1 | 41
66 | CC(=O)OC1CC[C@H]2[C@@H]3[C@H](C)CC4CC(=O)CC[C@]4(C)[C@H]3CC[C@]12C (stereo not given in full) | 142

Row | Structure (SMILES) | melting point [°C]
67 | CC1(C)C(=S)NC(c2ccccc2)N1O (stereo not given) | 193 to 195
68 | Cc1nn(C)c(NC(=O)CCl)c1Br | 151 to 153
69 | C[Si]1(C)O[Si](C)(C)O[Si](C)(C)O[Si](C)(C)O[Si](C)(C)O1 | -38
70 | Cc1ccc(OCCBr)cc1 | 37 to 38
71 | CCCCCCCCCCCCOc1ccc(N=Cc2ccc(N(C)C)cc2)cc1 | 94.5
72 | CC1=C(C(=O)O)N2C(=O)C(NC(=O)C(N)c3ccccc3)C2SC1 (stereo not given) | 327
73 | CNC(=S)NCc1ccccc1 | 75
74 | CC1=C(CCO)SC2=Nc3nc(C)ncc3CN21 | 229
75 | O=c1[nH]c2ccccc2n1C1CCNCC1 | 183 to 185
76 | NS(=O)(=O)c1cc2c(cc1Cl)NC(CSCC(F)(F)F)NS2(=O)=O (stereo not given) | 206
77 | BrCOCBr | -34
78 | CC(C)(C#N)C(C)(C)C#N | 170
79 | OCCC(F)(F)C(F)(F)C(F)(F)C(F)(F)C(F)(F)C(F)(F)F | -35
80 | CC12CCC(=O)C(Cl)=C1CCC1C2CCC2(C)C(O)CCC12 (stereo not given) | 189
81 | CCCC1C(=O)N2C(N(C)C)=Nc3ccc(C)cc3N2C1=O (stereo not given) | 228
82 | NNC(=S)Nc1cccc(F)c1 | 164 to 166
83 | CC1=C(C(=O)OCC(C)C)C(c2ccccc2)NC(=S)N1 (stereo not given) | 153
84 | Nc1c(Br)cc(F)cc1Br | 65
85 | CCOc1ccc(-c2nnc3sc(-c4ccc(Cl)cc4)nn23)cc1 | 113
86 | COc1ccc(CC(=O)O)c(OC)c1OC | 99 to 101

Next, values leading:

Row | melting point [°C] | Structure (SMILES)
87 | 198 | CCOC(=O)CNc1cc(NCC(=O)OCC)c([N+](=O)[O-])cc1[N+](=O)[O-]
88 | 149 to 153 | O=C(O)[C@H]1CCCCN1C(=O)OCC1c2ccccc2-c2ccccc21
89 | -87 | Cc1cccc(F)c1
90 | 284 to 288 | O=[N+]([O-])c1ccc2c(c1)-c1cccc([N+](=O)[O-])c1C2
91 | 81 | COC(=O)c1ccc([N+](=O)[O-])c(C)c1
92 | 300 | O=S1(=O)OC(c2ccc(O)cc2)(c2ccc(O)cc2)c2ccccc21
93 | 210 | O=C(c1ccc([N+](=O)[O-])cc1)c1noc(-c2ccc(Cl)cc2)c1S(=O)(=O)c1ccccc1
94 | 76 to 77 | Cc1c(C=O)cnn1-c1ccccc1
95 | 108 to 110 | Cc1ccc(N/N=C(/C(=O)c2cccc3ccccc23)S(=O)(=O)c2ccccc2)cc1
96 | 134 | N#CC(Cc1ccc([N+](=O)[O-])cc1)c1ccccc1 (stereo not given)
97 | 43 to 44 | Cc1noc(-c2ccccc2Br)n1
98 | 116 | N#Cc1ccc2c(c1)N(CCCN1CCC(O)CC1)c1ccccc1S2
99 | 123 | O=S(=O)(c1ccccc1)c1cccs1
100 | 122 | CN(CCOc1ccc(CC2SC(=O)NC2=O)cc1)c1ccccn1 (stereo not given)
101 | 90 | CCOC(=O)C(C)Oc1ccc(Oc2nc3ccc(Cl)cc3o2)cc1 (stereo not given)
102 | 120 | Cc1ccc(S(=O)(=O)Nc2ccc(Cl)cc2)cc1
103 | 282 | Nc1cc2c(cc1Cl)C(=O)c1ccccc1C2=O
104 | 73 to 75 | CCOC(=O)ON=C(C(=O)c1ccccc1)c1ccccc1
105 | 97 | BrC1(c2ccccc2)c2ccccc2-c2ccccc21
106 | 134 | CN(C)CCCNc1c2ccccc2nc2cccc([N+](=O)[O-])c12

Row | melting point [°C] | Structure (SMILES)
107 | 233 | Cc1nc(CC#N)sc1/N=N/c1ccc([N+](=O)[O-])cc1
108 | 73 to 77 | Cc1onc(-c2ccccc2)c1N=C=S
109 | 157 | Nc1ccc(S(=O)(=O)c2ccc(NC(=O)CCC(=O)O)cc2)cc1
110 | 91 to 92 | N#Cc1cccc(Cn2cncn2)c1
111 | 168 | Oc1ccc2c(c1)Cc1ccccc1-2
112 | 212 to 215 | O=C(Nc1ccccc1)c1cccc(S(=O)(=O)Nc2ccccc2)c1
113 | 100 to 103 | O=C(CC(=O)c1cc(Br)ccc1O)c1ccccc1
114 | 140 to 141 | O=C(CBr)c1cc2cc(Br)ccc2o1
115 | 190 | NC(=O)N1c2ccccc2C=Cc2ccccc21
116 | 231 to 233 | O=Cc1cccc(-c2ccc(C(=O)O)cc2)c1
117 | 195 | O=[N+]([O-])c1ccccc1OC1OC(CO)C(O)C(O)C1O (stereo not given)
118 | 241 | NC(=O)NN=CC(=O)c1ccc(C(=O)C=NNC(N)=O)c([N+](=O)[O-])c1
119 | 32 | O=S(=O)(Cl)c1cccc(Br)c1
120 | -4 | CC(C)(C)c1ccc2ccccc2c1
121 | 171 to 175 | O=C(c1ccc(Br)cc1)[C@H]1CCCC[C@H]1C(=O)O (relative stereo)
122 | 287 to 289 | O=c1nc(SCc2ccc(Cl)cc2)c2c([nH]1)CCCC2
123 | 190 to 191 | COc1ccc(/C=C/c2ccc([N+](=O)[O-])cc2[N+](=O)[O-])cc1O
124 | 203 | Cc1nn(-c2ccccc2)nc1C(=O)O
125 | 177 | Cc1c2cccc(-c3ccccc3)c2cc2c(-c3ccccc3)cccc12
